Measurements taken from patent US5830869A, “Thiadiazole amide MMP inhibitors” (priority 1997, dated 1998).

Molecular target: Stromelysin (Homo sapiens, UniProt P08254)
Assay: Stromelysin inhibition, in vitro particle concentration fluorescence assay (TABLE 1, MMP Inhibition Constants)
Type: biochemical
Details: fluorescein/biotin substrate, MMP buffer pH 7.5, room temperature, 15 min preincubation with enzyme, 1-3 h with substrate
Method: Inhibitory activity is evaluated in one or more of the MMP enzymes (stromelysin, gelatinase, and collagenase) in vitro using particle concentration fluorescence assay. An inhibitor binds to MMP enzymes which prevents the degradation of a substrate by stromelysin, gelatinase, or collagenase. The substrate has attached to it a fluorescein and a biotin moiety. The intact substrate then binds to an avidin-coated particle via the biotin moiety. Once the particle is washed and dried, a fluorescent signal is generated since the fluorescent group is attached to the particle. Without an inhibitor present, the substrate is degraded by MMP enzymes and the fluorescein group is removed, therefore, no fluorescent signal can be detected. Testing compounds are dissolved in DMSO to the desired concentration, then the solutions are diluted to 1:5 with MMP buffer (50 mM Tris-HCl, pH 7.5; 150 mM NaCl; 0.02% NaN3). Serial two-fold dilutions of each compound are prepared. A concentrated, activated enzyme solution is transferred into each plate of the testing compounds, and the mixture is incubated at room temperature for 15 minutes. Thawed MMP substrate is then added into all plates, and the plates are incubated in the dark for 1-3 hours at room temperature. At this point, the substrate mixture is mixed with 0.1% avidin-coated polystyrene particles. After 15 minutes, the fluorescence values are measured following filtration and washing of the beads. Ki values are then calculated.

Sequence of Stromelysin (P08254 100-477): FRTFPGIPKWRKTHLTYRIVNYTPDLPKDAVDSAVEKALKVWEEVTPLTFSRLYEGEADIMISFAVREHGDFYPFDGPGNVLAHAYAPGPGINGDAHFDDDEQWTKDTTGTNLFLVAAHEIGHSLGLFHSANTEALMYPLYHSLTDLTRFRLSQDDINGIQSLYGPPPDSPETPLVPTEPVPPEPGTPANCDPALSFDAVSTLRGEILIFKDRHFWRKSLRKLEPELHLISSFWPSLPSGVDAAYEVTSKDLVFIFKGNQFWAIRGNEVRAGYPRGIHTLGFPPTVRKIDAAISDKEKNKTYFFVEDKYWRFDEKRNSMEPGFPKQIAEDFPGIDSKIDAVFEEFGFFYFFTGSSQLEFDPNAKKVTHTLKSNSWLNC

| Compound | Ki [nM] |
| --- | --- |
| CC(C)(C)OC(=O)N[C@@H](Cc1c(F)c(F)c(F)c(F)c1F)C(=O)Nc1n[nH]c(=S)s1 [Example 28, (S)-[2-[(4,5-dihydro-5-thioxo-1,3,4-thiadiazol-2-yl)amino]-2-oxo-1-[(pentafluorophenyl)methyl]ethyl]carbamic acid 1,1-dimethylethyl ester] | 2220 |
| CC(C)(C)OC(=O)N1CCC[C@H]1C(=O)N[C@H](C(=O)Nc1n[nH]c(=S)s1)C(C)(C)C [Example 29, 1-[(1,1-dimethylethoxy)carbonyl]-L-prolyl-N-(4,5-dihydro-5-thioxo-1,3,4-thiadiazol-2-yl)-3-methyl-L-valinamide] | 1470 |
| O=C(CCc1ccccc1)N[C@@H](Cc1c(F)c(F)c(F)c(F)c1F)C(=O)Nc1n[nH]c(=S)s1 [Example 30, (S)-α-N-(4,5-dihydro-5-thioxo-1,3,4-thiadiazol-2-yl)-2,3,4,5,6-pentafluoro-[(1-oxo-3-phenylpropyl)amino]benzenepropanamide] | 970 |
| O=C(NCCC[C@H](NC(=O)OCc1ccccc1)C(=O)Nc1n[nH]c(=S)s1)OCc1ccccc1 [Example 31, (S)-[1-[[(4,5-dihydro-5-thioxo-1,3,4-thiadiazol-2-yl)amino]carbonyl]-1,4-butanediyl]bis carbamic acid bis(phenylmethyl) ester] | 2810 |
| CC(C)(C)[C@H](NC(=O)Cc1c[nH]c2ccccc12)C(=O)Nc1n[nH]c(=S)s1 [Example 32] | 410 |
| O=C(N[C@@H](Cc1c[nH]c2ccccc12)C(=O)Nc1n[nH]c(=S)s1)OCc1ccccc1 [Example 33, (S)-[2-[(4,5-dihydro-5-thioxo-1,3,4-thiadiazol-2-yl)amino]-1-(1H-indol-3-yl-methyl)-2-oxoethyl]-carbamic acid, phenylmethyl ester] | 10200 |
| O=C(N[C@@H](Cc1ccccc1)C(=O)Nc1n[nH]c(=S)s1)OCc1ccccc1 [Example 34, (S)-[2-[(4,5-dihydro-5-thioxo-1,3,4-thiadiazol-2-yl)amino]-2-oxo-1-(phenylmethyl)ethyl]carbamic acid phenylmethyl ester] | 6090 |
| CC(C)C[C@H](NC(=O)OCc1ccccc1)C(=O)Nc1n[nH]c(=S)s1 [Example 35, (S)-[1-[[(4,5-dihydro-5-thioxo-1,3,4-thiadiazol-2-yl)amino]carbonyl]-3-methylbutyl]carbamic acid phenylmethyl ester] | 2220 |
| CC(C)[C@H](NC(=O)OCc1ccccc1)C(=O)Nc1n[nH]c(=S)s1 [Example 36, (S)-[1-[[(4,5-dihydro-5-thioxo-1,3,4-thiadiazol-2-yl)amino]carbonyl]-2-methylpropyl]carbamic acid phenylmethyl ester] | 1160 |
| CC(C)(C)[C@H](NC(=O)OCC1c2ccccc2-c2ccccc21)C(=O)Nc1n[nH]c(=S)s1 [Example 37, (S)-[1-[[(4,5-dihydro-5-thioxo-1,3,4-thiadiazol-2-yl)amino]carbonyl]-2,2-dimethylpropyl]carbamic acid 9H-fluoren-9-yl-methyl ester] | 120 |
| O=C(NCC(C(=O)Nc1n[nH]c(=S)s1)c1ccccc1)OCc1ccccc1 (centres unmarked) [Example 38, [3-[(4,5-dihydro-5-thioxo-1,3,4-thiadiazol-2-yl)amino]-3-oxo-2-phenylpropyl]carbamic acid phenylmethyl ester] | 2270 |
| O=C(NCC(Cc1ccccc1)C(=O)Nc1n[nH]c(=S)s1)OCc1ccccc1 (centres unmarked) [Example 39, [3-[(4,5-dihydro-5-thioxo-1,3,4-thiadiazol-2-yl)amino]-3-oxo-2-(phenylmethyl)propyl]carbamic acid phenylmethyl ester] | 1320 |
| CC(C)(C)C(CC(=O)Nc1n[nH]c(=S)s1)NC(=O)OCc1ccccc1 (centres unmarked) [Example 40, [3-[(4,5-dihydro-5-thioxo-1,3,4-thiadiazol-2-yl)amino]-3-oxo-1-(1,1-dimethylethyl)propyl]carbamic acid phenylmethyl ester] | 11100 |
| O=C(CC(NC(=O)OCc1ccccc1)c1ccccc1)Nc1nnc(S)s1 (centres unmarked) [Example 41, [3-[(4,5-dihydro-5-thioxo-1,3,4-thiadiazol-2-yl)amino]-3-oxo-1-phenylpropyl]carbamic acid phenylmethyl ester] | 400 |
| O=C(CC(NC(=O)c1ccccc1)c1ccccc1)Nc1n[nH]c(=S)s1 (stereo not drawn) [Example 42, β-(benzoylamino)-N-(4,5-dihydro-5-thioxo-1,3,4-thiadiazol-2-yl)benzenepropanamide] | 1360 |
| O=C(CC(NC(=O)Cc1ccccc1)c1ccccc1)Nc1n[nH]c(=S)s1 (stereo not drawn) [Example 43, N-(4,5-dihydro-5-thioxo-1,3,4-thiadiazol-2-yl)-β-[(phenylacetyl)amino]benzenepropanamide] | 655 |
| O=C(CC(NC(=O)CCc1ccccc1)c1ccccc1)Nc1n[nH]c(=S)s1 (centres unmarked) [Example 44] | 690 |
| CC(C)(C)OC(=O)NC(CC(=O)Nc1n[nH]c(=S)s1)c1ccccc1 (centres unmarked) [Example 45, [3-[(4,5-dihydro-5-thioxo-1,3,4-thiadiazol-2-yl)amino]-3-oxo-1-phenylpropyl]carbamic acid 1,1-dimethylethyl ester] | 720 |
| O=C(CC(NC(=O)OCC1c2ccccc2-c2ccccc21)c1ccccc1)Nc1n[nH]c(=S)s1 (centres unmarked) [Example 46, [3-[(4,5-dihydro-5-thioxo-1,3,4-thiadiazol-2-yl)amino]-3-oxo-1-phenylpropyl]carbamic acid 9H-fluoren-9-yl methyl ester] | 440 |
| COCC(=O)NC(CC(=O)Nc1n[nH]c(=S)s1)c1ccccc1 (stereo not drawn) [Example 47, N-(4,5-dihydro-5-thioxo-1,3,4-thiadiazol-2-yl)-β-[(methoxyacetyl)amino]benzenepropanamide] | 1360 |
| O=C(CC(NC(=O)COc1ccccc1)c1ccccc1)Nc1n[nH]c(=S)s1 (stereo not drawn) [Example 48, N-(4,5-dihydro-5-thioxo-1,3,4-thiadiazol-2-yl)-β-[(phenoxyacetyl)amino]benzenepropanamide] | 313 |
| O=C(CC(NC(=O)COCc1ccccc1)c1ccccc1)Nc1n[nH]c(=S)s1 (stereo not drawn) [Example 49, N-(4,5-dihydro-5-thioxo-1,3,4-thiadiazol-2-yl)-β-[(phenylmethoxyacetyl)amino]benzenepropanamide] | 840 |
| O=C(C[C@H](NC(=O)OCc1ccccc1)c1ccccc1)Nc1n[nH]c(=S)s1 [Example 51, (S)-[3-[(4,5-dihydro-5-thioxo-1,3,4-thiadiazol-2-yl)amino]-3-oxo-1-phenylpropyl]carbamic acid phenylmethyl ester] | 1500 |
| O=C(C[C@@H](NC(=O)OCc1ccccc1)c1ccccc1)Nc1n[nH]c(=S)s1 [Example 52, (R)-[3-[(4,5-dihydro-5-thioxo-1,3,4-thiadiazol-2-yl)amino]-3-oxo-1-phenylpropyl]carbamic acid phenylmethyl ester] | 260 |
| O=C(N[C@H]1CCCC[C@H]1C(=O)Nc1n[nH]c(=S)s1)OCC1c2ccccc2-c2ccccc21 [Example 53, (1S-cis-)-[2-[[(4,5-dihydro-5-thioxo-1,3,4-thiadiazol-2-yl)amino]carbonyl]cyclohexyl]carbamic acid 9H-fluoren-9-yl-methyl ester] | 15000 |
| CC(C)C[C@@H](CC(=O)Nc1n[nH]c(=S)s1)NC(=O)OCc1ccccc1 [Example 54, (S)-[1-[2-[[4,5-dihydro-5-thioxo-1,3,4-thiadiazol-2-yl)amino]-2-oxoethyl]-3-methylbutyl]carbamic acid phenylmethyl ester] | 1200 |
| CCOC(=O)C(Cc1ccccc1)C(=O)Nc1n[nH]c(=S)s1 (stereo not drawn) [Example 57, ethyl α-[[(4,5-dihydro-5-thioxo-1,3,4-thiadiazol-2yl)amino]carbonyl]benzenepropanoate] | 4050 |
| CCOC(=O)C(C(=O)Nc1n[nH]c(=S)s1)C(C)(C)C (stereo not drawn) [Example 58, ethyl α-[[(4,5-dihydro-5-thioxo-1,3,4-thiadiazol-2-yl)amino]carbonyl]-3,3-dimethylbutanoate] | 5000 |
| CNC(=O)C(C(=O)Nc1n[nH]c(=S)s1)C(C)(C)C (stereo not drawn) [Example 59, N-methyl-α-[[(4,5-dihydro-5-thioxo-1,3,4-thiadiazol-2-yl)amino]carbonyl]-3,3-dimethylbutanamide] | 4300 |
